Where a SMILES comes first, the peptide text is derived from it. The star is where a group is joined. X2 = O=C(O)C[C@H](N*)C(=O)COc1c(F)cccc1F; Quinaldoyl = O=C(c1ccc2ccccc2n1)*

The values that follow come from patent US11407741B2, “Compounds and their use as selective inhibitors of caspase-2” (priority 2017, dated 2022).

The subject of one assay is HeLa cells. Kind of assay: Protection against vincristine-induced cell death, propidium iodide flow cytometry. The format is cell-based, human. Set-up: Index of cell death: key to the marks not given beside the values. As to conditions: 20 nM Vincristine for 48 hours, propidium iodide positive cells. The procedure:
Human HeLa cells are used in this model. HeLa cells (cervical cancer cell line) were obtained from American Type Cell Collection (ATCC), and were cultured in Dulbecco's Modified Eagle Medium (DMEM, High Glucose, GlutaMAX™, Pyruvate) (Gibco, Life technologies), supplemented with 10% FCS and antibiotics (Gibco, Life technologies).
Human HeLa cells are treated with a solution of Vincristine (Sigma Aldrich) (diluted in water at 5 mM). Vincristine works partly by binding to the Tubulin protein, stopping the cell from separating its chromosomes during the metaphase; the cell then undergoes apoptosis through a caspase-dependent process.
Propidium iodide (PI) (Sigma Aldrich) is used to evaluate plasma membrane permeabilisation, a sign of cell death.
24 hours before pharmacological treatment, HeLa cells were plated into 24-well plates. […] Cells were exposed or not (control), to 20 nM Vincristine for 48 hours.
The content of each well is collected is added to PBS and then centrifuged (900 rpm; 5 min).
The pellet obtained is put into 300 μL of a medium comprising propidium iodide and incubated (37° C., 5% CO2) in the dark for 5 minutes and then subjected to flow cytometry analysis.
Fluorescence-Activated Cell Sorting was performed using a FACSCalibur cytometer (Becton Dickinson, San Jose, Calif.). For each sample, data from 5,000 Cells were registered and analyzed with the CellQuest Pro software (Becton Dickinson). Analysis included FSC (Forward Scatter/relating to the cells'size) and SSC (Side Scatter/relating to the cells' granularity) parameters together with FL-1 and FL-3 channel.
The percentage of propidium iodide positive cells gives an estimation of cell death.
Background: A flow cytometer gives signals particle by particle.

For a further assay, the target named is T1, Caspase-3 (Homo sapiens, UniProt P42574).
T1 construct: the Caspase-2 and Caspase-3 are human recombinant active enzymes; purchased R&D Systems 707-C3-010/CF
T1 sequence (P42574 29-175 limits assumed): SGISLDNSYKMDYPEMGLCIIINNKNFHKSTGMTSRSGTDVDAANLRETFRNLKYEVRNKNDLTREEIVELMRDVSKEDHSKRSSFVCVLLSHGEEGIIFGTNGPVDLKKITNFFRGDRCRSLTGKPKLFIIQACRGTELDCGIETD
T1 sequence (P42574 176-277 limits assumed): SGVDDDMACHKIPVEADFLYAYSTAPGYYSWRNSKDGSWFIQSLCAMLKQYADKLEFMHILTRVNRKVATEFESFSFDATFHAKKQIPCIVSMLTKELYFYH
Kind of assay: Caspase-3 inhibition assay for irreversible inhibitors (kinact/KI, continuous method). The format is biochemical. Conditions: human recombinant Caspase-3 0.5 nM, 37° C. The procedure: (§1) The efficiency of the comparative compound Δ2Me-TRP601, that is an already known group II Caspase inhibitor (inhibitor of Caspase-2, Caspase-3 and Caspase-7), has been assessed by a similar protocol described in Chauvier et al., 2011 Cell Death Dis 2011, 2:e203.
(§2) In this example, the Caspase-2 and Caspase-3 are human recombinant active enzymes that are respectively provided by Enzo Life® (ALX-201-057-U100) and R&D Systems® (707-C3-010/CF).
Caspase-2 is used at a final concentration of 0.1 nM in a “Caspase-2 buffer” containing 20 mM HEPES (pH 7.4), 5 mM DTT, 2 mM EDTA, 0.1% CHAPS and 800 mM succinate. […]
The peptide substrates used for the enzymatic activity measurements are Ac-DEVD-AMC and Ac-VDVAD-AMC commercialized by EnzoLife® (respectively referenced ALX-260-031-M005 and ALX-260-060-M005). […] The releasing of AMC enables to follow the enzymatic activity in fluorescence unit RFU over time in a 96-wells microplate.
The fluorescence values are measured at 37° C. with a spectrofluorometer with a microplate reader BMG FLUOstar OPTIMA. […]
The inhibitory properties of the tested compounds are evaluated by the determination of the kinact/KI ratio regarding either Caspase-2 or Caspase-3 wherein: • kinact is the maximal inactivation rate constant, and • KI is the dissociation constant according to: […]
The activities of the enzyme are measured between 45 and 60 minutes. […]

In a further assay the target is T2, Caspase-2 (Homo sapiens, UniProt P42575).
T2 construct: the Caspase-2 and Caspase-3 are human recombinant active enzymes; purchased Enzo Life ALX-201-057-U100
T2 sequence (P42575 170-325 limits assumed): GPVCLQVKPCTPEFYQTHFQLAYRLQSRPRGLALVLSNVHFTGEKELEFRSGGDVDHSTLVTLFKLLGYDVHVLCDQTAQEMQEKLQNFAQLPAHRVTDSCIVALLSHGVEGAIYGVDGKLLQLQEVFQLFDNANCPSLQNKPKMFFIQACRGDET
T2 sequence (P42575 348-452 limits assumed): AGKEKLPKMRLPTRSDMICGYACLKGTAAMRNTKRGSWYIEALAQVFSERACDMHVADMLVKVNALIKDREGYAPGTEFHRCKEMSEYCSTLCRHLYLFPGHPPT
Briefly: Caspase-2 inhibition assay for irreversible inhibitors (kinact/KI, continuous method). The format is biochemical. The protocol:
as §1, §2
Caspase-2 is used at a final concentration of 0.1 nM in a “Caspase-2 buffer” containing 20 mM HEPES (pH 7.4), 5 mM DTT, 2 mM EDTA, 0.1% CHAPS and 800 mM succinate. Caspase-3 is used at a final concentration of 0.5 nM in a “Caspase-3 buffer” containing 20 mM HEPES (pH 7.4), 0.1% CHAPS, 5 mM DTT, and 2 mM EDTA.
The peptide substrates used for the enzymatic activity measurements are Ac-DEVD-AMC and Ac-VDVAD-AMC commercialized by EnzoLife® (respectively referenced ALX-260-031-M005 and ALX-260-060-M005). They are fluorogenic due to the presence of their AMC (7-amino-4-methylcoumarin) end group. The releasing of AMC enables to follow the enzymatic activity in fluorescence unit RFU over time in a 96-wells microplate.
The fluorescence values are measured at 37° C. with a spectrofluorometer with a microplate reader BMG FLUOstar OPTIMA. This apparatus is driven by the software Biolise® and is equipped with thermoelectric cooling device by Peltier effect. The mathematical analyses of the experimental data are done with the software Kaleidagraph®.
The inhibitory properties of the tested compounds are evaluated by the determination of the kinact/KI ratio regarding either Caspase-2 or Caspase-3 wherein: • kinact is the maximal inactivation rate constant, and • KI is the dissociation constant according to:
Said ratio is measured according to the continuous method (Allison R D. Curr Protoc Protein Sci. 2001 May; Chapter 3:Unit 3.5.; Chauvier et al., 2011 Cell Death Dis 2:e203; Tan et al., J Med Chem 2015, […]).
Briefly, Caspases activities were determined by monitoring the hydrolysis of fluorogenic substrates (λexc=355 nm, λem=460 nm) as a function of time, in the presence of untreated Caspases (control) or Caspases that had been incubated with a test compound, for 30 min minimum at 37° C. using a BMG Fluostar microplate reader (black 96-well microplates) and the initial velocity (V0) was determined from the linear portion of the progress curve.
Substrates and compounds were previously dissolved in DMSO at 10 mM, with the final solvent concentration kept at lower 4% (v/v). V0, relative velocities, KM and IC50 were determined from experimental data using Mars data Analysis 2.0 and Kaleidagraph softwares.
Inhibitor binding affinity (dissociation constant, KI) and first-order rate constant (k3) parameters were determined for Caspase-2 and Caspase-3 using the progress curve method. The ratio k3/KI was obtained by fitting the experimental data to the equations (F.U., fluorescence unit): […]
A continuous method of determination of the kinact/KI ratio was used for evaluating the inhibitory activity of the tested compounds against Caspase-2 and Caspase-3.
The reaction mixture is prepared by letting the enzyme and the buffer incubate at 37° C.
The tested inhibitory compounds are prepared at different concentrations (¼ IC50; ½ IC50; IC50; 2 IC50; 4 IC50) and put in the microplate.
Then the reaction mixture comprising the enzyme, the buffer and the substrate is rapidly added in the wells.
The activities of the enzyme are measured between 45 and 60 minutes.
The RFU (Relative Fluorescence Units)=f(times) curves are traced for each concentration of tested molecule according to the following equation: ((((−V0)*(exp(−kobs*m0)))+V0)/kobs*)+RFU0
in which: • V0 corresponds to the initial rate (RFU·s^−1) in the concentration of 0 of the tested inhibitory compound; • kobs is the inactivation rate constant; • RFU0 is the fluorescence value at t=0 min; and • m0 is the variable i.e. the inhibitor concentration.

As to `CC[C@]1(O)C[C@H]2CN(CCc3c([nH]c4ccccc34)[C@@](C(=O)OC)(c3cc4c(cc3OC)N(C=O)[C@H]3[C@@](O)(C(=O)OC)[C@H](OC(C)=O)[C@]5(CC)C=CCN6CC[C@]43[C@@H]65)C2)C1` [Vincristine alone, Vincristine, reference compound], the “Index of cell death” value with HeLa cells is on record as “++++”.
Consider `CC(C)[C@H](NC(=O)c1ccc2ccccc2n1)C(=O)N[C@@H](CC(=O)O)C(=O)N[C@H](C(=O)N[C@@H](C)C(=O)N[C@@H](CC(=O)O)C(=O)COc1c(F)cccc1F)C(C)C` [Δ2Me-TRP-601, reference compound] (Quinaldoyl-VDVA-X2), for which the “k3/KI Casp3” value on Caspase-3 is 1 613 405 M^−1 · s^−1. The “Selectivity for Caspase 2” value on Caspase-2 (comparison of kinact/KI ratios regarding caspase 2 and 3) is reported as “no”. Also, the “k3/KI Casp2” value on Caspase-2 (human recombinant Caspase-2 0.1 nM, 37° C.) is recorded as 1 586 020 M^−1 · s^−1. Also, the “Selectivity ratio (C2/C3)” value on Caspase-2 (ratio of k3/KI Casp2 to Casp3) came to 0.98.
